Starred links: 1 amine or outer side, 2 acyl side, 3 side chain; linkers in the order of their positions; H or OH if unused. Positions of bridges follow the written chain, without caps; N, C: chain ends. Non-standard residues stand in square brackets, D forms with d. Residues, ends and D or L forms follow the SMILES beside them. Chains are numbered I, II in the order given. Actinocin(9to1) = Cc1c2oc3c(C)ccc(C(=O)[*:1])c3nc-2c(C(=O)[*:2])c(N)c1=O; NMeV = CN[C@H](C(=O)O)C(C)C; Sar = CNCC(=O)O
What was measured:
[1] = target: T1, Solute carrier organic anion transporter family member 1B3 (Homo sapiens, UniProt Q9NPD5); conditions: chinese hamster, cho, 10 µM
T1 sequence (Q9NPD5 whole entry): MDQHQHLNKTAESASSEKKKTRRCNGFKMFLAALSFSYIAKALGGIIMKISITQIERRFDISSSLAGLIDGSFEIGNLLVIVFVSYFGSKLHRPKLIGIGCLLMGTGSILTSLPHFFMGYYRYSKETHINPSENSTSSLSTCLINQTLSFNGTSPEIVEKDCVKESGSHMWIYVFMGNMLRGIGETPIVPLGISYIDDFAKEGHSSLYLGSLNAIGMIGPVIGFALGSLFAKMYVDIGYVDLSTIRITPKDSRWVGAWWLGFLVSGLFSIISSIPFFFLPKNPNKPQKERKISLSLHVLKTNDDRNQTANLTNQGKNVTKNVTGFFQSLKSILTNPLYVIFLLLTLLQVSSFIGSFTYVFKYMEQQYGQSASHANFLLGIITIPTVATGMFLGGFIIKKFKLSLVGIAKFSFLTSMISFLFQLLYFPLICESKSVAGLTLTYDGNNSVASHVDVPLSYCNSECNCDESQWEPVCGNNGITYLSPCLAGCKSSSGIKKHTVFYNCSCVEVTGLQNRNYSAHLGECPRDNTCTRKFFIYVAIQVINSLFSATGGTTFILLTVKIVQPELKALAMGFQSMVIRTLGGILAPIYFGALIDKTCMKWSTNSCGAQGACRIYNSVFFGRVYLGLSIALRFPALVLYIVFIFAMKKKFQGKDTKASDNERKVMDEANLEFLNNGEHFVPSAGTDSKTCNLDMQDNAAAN

[2] = target: T2, Solute carrier organic anion transporter family member 1B1 (Homo sapiens, UniProt Q9Y6L6); conditions: chinese hamster, cho, 10 µM
T2 sequence (Q9Y6L6 whole entry): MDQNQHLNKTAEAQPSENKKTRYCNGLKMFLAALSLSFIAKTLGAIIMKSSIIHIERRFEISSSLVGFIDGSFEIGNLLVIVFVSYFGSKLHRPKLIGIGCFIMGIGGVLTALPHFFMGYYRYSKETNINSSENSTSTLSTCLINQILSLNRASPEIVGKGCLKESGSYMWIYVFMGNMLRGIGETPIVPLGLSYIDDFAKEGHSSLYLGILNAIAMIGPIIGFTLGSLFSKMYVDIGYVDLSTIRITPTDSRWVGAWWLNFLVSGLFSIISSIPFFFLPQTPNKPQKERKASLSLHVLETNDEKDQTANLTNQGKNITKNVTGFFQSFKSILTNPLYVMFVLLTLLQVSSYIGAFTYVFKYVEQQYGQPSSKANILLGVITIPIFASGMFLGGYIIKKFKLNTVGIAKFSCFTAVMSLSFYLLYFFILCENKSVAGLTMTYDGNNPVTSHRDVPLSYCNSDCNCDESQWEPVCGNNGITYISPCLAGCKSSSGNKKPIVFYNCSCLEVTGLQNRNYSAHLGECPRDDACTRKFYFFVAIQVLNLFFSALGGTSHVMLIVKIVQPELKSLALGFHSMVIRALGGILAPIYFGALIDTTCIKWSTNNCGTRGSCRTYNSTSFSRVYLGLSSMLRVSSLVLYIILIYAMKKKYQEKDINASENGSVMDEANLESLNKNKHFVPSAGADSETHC

SMILES | residual activity [1] [%] | residual activity [2] [%]
Cc1ccc(-c2cc(C(F)(F)F)nn2-c2ccc(S(N)(=O)=O)cc2)cc1 [CELECOXIB] | 142.8 | 108.3
O=C1[C@H](CC[C@H](O)c2ccc(F)cc2)[C@@H](c2ccc(O)cc2)N1c1ccc(F)cc1 [EZETIMIBE] | 30.63 | 51.36
O=c1c2ccccc2oc2ccccc12 [XANTHONE] | 131.5 | 123.7
CNc1ccccc1C(=O)N1CCc2c([nH]c3ccccc23)C1=O [RHETSININE] | 98.18 | 102
Cc1cccc(C(=O)O)c1O [HYDROXYTOLUIC ACID] | 110.2 | 125.2
CC[C@H](CC[C@@H](C)[C@H]1CC[C@H]2[C@@H]3CC[C@H]4C[C@@H](O)CC[C@]4(C)[C@H]3CC[C@]12C)C(C)C [STIGMASTANOL] | 102.9 | 77.21
CCOC(=O)C(C)(C)Oc1ccc(Cl)cc1 [CLOFIBRATE] | 127.7 | 114.7
Cc1c(C(=O)O)c(O)cc2c1C(=O)c1c(O)c([C@@H]3O[C@H](CO)[C@@H](O)[C@H](O)[C@H]3O)c(O)c(O)c1C2=O [CARMINIC ACID] | 121.9 | 21.61
Nc1ccn([C@@H]2O[C@H](CO)[C@@H](O)[C@@H]2O)c(=O)n1 [CYTARABINE] | 95.76 | 78.64
CCC1(C2=NCCN2)Cc2ccccc2O1.Cl (centres undefined) [EFAROXAN HYDROCHLORIDE] | 83.03 | 80.2
CC(C)NCC(O)c1ccc(O)c(O)c1.Cl (centres undefined) [ISOPROTERENOL HYDROCHLORIDE] | 88.72 | 105.2
CCCCC(=O)O[C@H]1CC[C@H]2[C@@H]3CCc4cc(O)ccc4[C@H]3CC[C@]12C [ESTRADIOL VALERATE] | 129.8 | 291.5
CCCN(CCC)C(=O)C(CCC(=O)O)NC(=O)c1ccccc1 (centres undefined) [PROGLUMIDE] | 104.8 | 105
Cc1c2oc3c(C)ccc(C(=O)N[C@@H]4C(=O)N[C@H](C(C)C)C(=O)N5CCC[C@H]5C(=O)N(C)CC(=O)N(C)[C@@H](C(C)C)C(=O)O[C@@H]4C)c3nc-2c(C(=O)N[C@@H]2C(=O)N[C@H](C(C)C)C(=O)N3CCC[C@H]3C(=O)N(C)CC(=O)N(C)[C@@H](C(C)C)C(=O)O[C@@H]2C)c(N)c1=O [DACTINOMYCIN] (I: T[dV]P[Sar][NMeV] / II: T[dV]P[Sar][NMeV]; ester I:1-I:C, II:1-II:C; linker I:N-II:N via Actinocin(9to1)) | 85.16 | 57.98
CC(C)OC(=O)C(C)(C)Oc1ccc(C(=O)c2ccc(Cl)cc2)cc1 [FENOFIBRATE] | 90.21 | 82.56
CCn1cc(C(=O)O)c(=O)c2cnc(N3CCCC3)nc21 [PIROMIDIC ACID] | 101 | 79.57
c1ccc2c(c1)cc1ccc3cccc4ccc2c1c34 | 70.45 | 74.44
C=C(C)[C@@H]1[C@H]2OC(=O)[C@@H]1[C@]1(O)C[C@H]3O[C@]34C(=O)O[C@H]2[C@]14C [PICROTOXININ] | 101.9 | 102.7
CC[C@H](/C=C/[C@@H](C)[C@H]1CC[C@H]2[C@@H]3CCC4=CC(=O)CC[C@]4(C)[C@H]3CC[C@]12C)C(C)C | 88.84 | 89.99
Cc1cc(=O)c2c(O)c(C)c(O)cc2o1 [EUGENITOL] | 88.28 | 77.61
CC(C)NC[C@@H](O)COc1cccc2ccccc12.Cl [DEXPROPRANOLOL HYDROCHLORIDE] | 103.2 | 108.7

SMILES | residual activity [1] [%] | residual activity [2] [%]
COc1ccc(C(=O)O[C@H]2CC[C@@]3(C)[C@@H]4CC[C@H]5[C@]6(O)C[C@H](O)[C@@]7(O)[C@@H](CN8C[C@@H](C)CC[C@H]8[C@@]7(C)O)[C@]6(O)C[C@@]53O[C@]24O)cc1OC [VERATRIDINE] | 133.7 | 82.28
NC[C@H]1O[C@H](O[C@H]2[C@H](O)[C@@H](O[C@H]3O[C@H](CO)[C@@H](O)[C@H](N)[C@H]3O)[C@H](N)C[C@@H]2N)[C@H](N)[C@@H](O)[C@@H]1O.O=S(=O)(O)O [BEKANAMYCIN SULFATE] | 118.1 | 101.9
C[C@@H]1O[C@@H](O[C@H]2[C@H](O[C@H]3CC[C@@]4(C)[C@@H](CC[C@]5(C)[C@@H]4CC=C4[C@@H]6CC(C)(C)CC[C@]6(C(=O)O[C@@H]6O[C@H](CO[C@@H]7O[C@H](CO)[C@@H](O[C@@H]8O[C@@H](C)[C@H](O)[C@@H](O)[C@H]8O)[C@H](O)[C@H]7O)[C@@H](O)[C@H](O)[C@H]6O)CC[C@]45C)[C@]3(C)CO)OC[C@H](O)[C@@H]2O)[C@H](O)[C@H](O)[C@H]1O [KALOPANAXSAPONIN B] | 109.8 | 127.7
CCCCC[C@H](CC(=O)O)C(=O)O [NONIC ACID] | 117 | 128.4
CC(C)(C)NC[C@H](O)c1ccc(O)c(CO)c1.Cl [LEVALBUTEROL HYDROCHLORIDE] | 85.66 | 95.04
c1coc(CNc2ncnc3[nH]cnc23)c1 [KINETIN] | 100.6 | 96.48
CC1(C)C2(Cl)C(Cl)C(Cl)C(Cl)(C(Cl)Cl)C1(Cl)C2Cl (centres undefined) [STROBANE] | 105.4 | 106.1
CC1=CCc2c(cc3oc(C)cc(=O)c3c2O)OC1 [PTAEROXYLIN] | 109.4 | 104.1
CC(=O)[C@@]1(O)CC[C@H]2[C@@H]3C=C(Cl)C4=CC(=O)[C@@H]5C[C@@H]5[C@]4(C)[C@H]3CC[C@@]21C [CYPROTERONE] | 112.2 | 30.6
C[C@]12CCC(=O)C(O)=C1CC[C@@H]1[C@@H]2CC[C@]2(C)C(=O)CC[C@@H]12 [FORMESTANE] | 106.1 | 81.74
CCC(=O)OCC(=O)[C@]1(OC(=O)CC)[C@H](C)C[C@H]2[C@@H]3CCC4=CC(=O)C=C[C@]4(C)[C@@]3(F)[C@@H](O)C[C@]21C | 77.45 | 76.42
CCN(CCCc1ccccc1)CCCc1ccccc1.O=C(O)CC(O)(CC(=O)O)C(=O)O [ALVERINE CITRATE] | 74.4 | 48.34
CC(C[N+](C)(C)C)OC(N)=O.[Cl-] (centres undefined) [BETHANECHOL CHLORIDE] | 100 | 111.1
O=c1cc(-c2ccccc2)oc2cc(O)c(O)c(O)c12 [BAICALEIN] | 90.2 | 91.06
CC(=O)N[C@H]1[C@H]([C@@H](O)[C@H](O)CO)O[C@@](O)(C(=O)O)C[C@@H]1O | 91.96 | 93.14
Cc1ccc(C(C)C)c(O)c1C(=O)O [ORTHOTHYMOTINIC ACID] | 82.08 | 75.5
COc1ccc(-c2oc3ccccc3c(=O)c2O)cc1OC [3-HYDROXY-3',4'-DIMETHOXYFLAVONE] | 106.3 | 119.6
CC(C)c1ccc2c(c1O)CC[C@H]1C3=C(CC[C@]21C)C(=O)OC3 [TRIPTOPHENOLIDE] | 110.8 | 120.3
CC(C)c1c(O)c(-c2cc3c(c(C(C)C)c2O)CC[C@H]2C(C)(C)CCC[C@]32C)cc2c1CC[C@H]1C(C)(C)CCC[C@]21C | 91.38 | 64.65
OCCN1C[C@H](O)[C@@H](O)[C@H](O)[C@H]1CO [MIGLITOL] | 80.3 | 99.55
COc1ccc(C(=O)CC(=O)O)c2c1C=CC(C)(C)O2 [URSINOIC ACID] | 105.2 | 116
